# From patent publication US20250092039A1, “GLUTARIMIDE-CONTAINING PAN-KRAS-MUTANT DEGRADER COMPOUNDS AND USES THEREOF” (Tiger Biotherapeutics Inc., priority 2022, published 2025)
# Read-outs that look alike come from different tables or passages of the source.
# Experiments:
# KRAS-G12V/RAF1 = KRAS-G12V/RAF1 (Homo sapiens (Human), UniProt P01116, G12V); assay: KRAS/RAF1 binding inhibition assay (AlphaScreen)
# Method in brief: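 Binding of GppNHp-loaded KRAS G12V to the RAF1 RBD was measured by AlphaScreen with test compound present in 2% DMSO (final), 60 min incubation at 4° C. Signals were converted to % inhibition versus DMSO, and IC50 was obtained by variable-slope nonlinear regression.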
# KRAS G12V = KRAS G12V (Homo sapiens (Human), UniProt P01116, G12V); assay: KRAS G12V degradation in SW620 cells (Western blot, DC50); assay type: cell-based; details: 24 hours
# Chain of KRAS G12V (P01116-2 other isoform, or with tags, fused parts or gaps G12V): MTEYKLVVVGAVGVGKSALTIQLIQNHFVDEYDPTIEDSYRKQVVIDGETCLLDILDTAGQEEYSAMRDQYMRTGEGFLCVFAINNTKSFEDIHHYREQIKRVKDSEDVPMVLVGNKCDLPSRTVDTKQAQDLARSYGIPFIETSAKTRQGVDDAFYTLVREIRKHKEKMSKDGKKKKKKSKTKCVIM
# Method in brief: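 SW620 cells (homozygous KRAS G12V) were treated with compound for 24 hours at 37° C. KRAS in lysates was measured by Western blot with fluorescent secondary antibodies and expressed relative to DMSO vehicle (100%). DC50 came from a four-parameter variable-slope dose-response fit.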
# SW620 cells = assay: 3D cell growth inhibition of SW620 cells carrying endogenous KRAS G12V mutation (CellTiter-Glo 3D, GI50); assay type: cell-based; details: SW620 cells, 6 days, read-out: SW620 3D cell growth GI50
# Method in brief: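 SW620 cells (endogenous KRAS G12V) grown in 3D were dosed next day with compound from DMSO stocks at various concentrations, then incubated 6 days at 37° C.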
# Chain of KRAS-G12V/RAF1 (P01116-2 other isoform, or with tags, fused parts or gaps G12V): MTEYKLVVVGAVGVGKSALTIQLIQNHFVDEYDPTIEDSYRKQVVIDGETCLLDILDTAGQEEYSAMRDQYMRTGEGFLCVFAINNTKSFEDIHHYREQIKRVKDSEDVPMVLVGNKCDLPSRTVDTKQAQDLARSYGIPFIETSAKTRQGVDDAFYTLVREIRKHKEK
SMILES,IC50 (KRAS-G12V/RAF1) [nM],DC50 (KRAS G12V) [nM],"GI50 (SW620 cells; Homo sapiens, SW-620, 144 h) [nM]",GI50 (SW620 cells) [nM]
"CCc1cccc2cc(O)cc(-c3ncc4c(N5CCC[C@@](C)(O)C5)nc(OCC5(CN6CCC7(CC6)CC(N6CCN(c8ccc9c(c8)CN([C@H]8CCC(=O)NC8=O)C9=O)CC6)C7)CC5)nc4c3F)c12 [Compound 138, (3S)-3-[5-[4-[7-[[1-[[7-(8-ethyl-3-hydroxy-1-naphthyl)-8-fluoro-4-[(3R)-3-hydroxy-3-methyl-1-piperidyl]pyrido[4,3-d]pyrimidin-2-yl]oxymethyl]cyclopropyl]methyl]-7-azaspiro[3.5]nonan-2-yl]piperazin-1-yl]-1-oxo-isoindolin-2-yl]piperidine-2,6-dione]",20 to 200,< 1,< 10,
"CCc1c(F)ccc2cc(O)cc(-c3ncc4c(N5CCC[C@@](C)(O)C5)nc(OCC5(CN6CC(N7CCC(N8CCN(c9ccc%10c(c9)CN([C@H]9CCC(=O)NC9=O)C%10=O)CC8)CC7)C6)CC5)nc4c3F)c12 [Compound 139, (S)-3-(5-(4-(1-(1-((1-(((7-(8-ethyl-7-fluoro-3-hydroxynaphthalen-1-yl)-8-fluoro-4-((R)-3-hydroxy-3-methylpiperidin-1-yl)pyrido[4,3-d]pyrimidin-2-yl)oxy)methyl)cyclopropyl)methyl)azetidin-3-yl)piperidin-4-yl)piperazin-1-yl)-1-oxoisoindolin-2-yl)piperidine-2,6-dione]",< 20,< 1,< 10,
"CCc1cccc2cc(O)cc(-c3ncc4c(N5CCC[C@@](C)(O)C5)nc(OCC5(CN6CCC7(CC6)CCN(c6ccc8c(c6)CN(C6CCC(=O)NC6=O)C8=O)CC7)CC5)nc4c3F)c12 (stereo partly drawn) [Compound 140, 3-(5-(9-((1-(((7-(8-ethyl-3-hydroxynaphthalen-1-yl)-8-fluoro-4-((R)-3-hydroxy-3-methylpiperidin-1-yl)pyrido[4,3-d]pyrimidin-2-yl)oxy)methyl)cyclopropyl)methyl)-3,9-diazaspiro[5.5]undecan-3-yl)-1-oxoisoindolin-2-yl)piperidine-2,6-dione]",20 to 200,< 1,< 10,
"CCc1cccc2cc(O)cc(-c3ncc4c(N5CCC[C@@](C)(O)C5)nc(OCC5(CN6CC7(CCC(N8CCN(c9ccc%10c(c9)CN([C@H]9CCC(=O)NC9=O)C%10=O)CC8)CC7)C6)CC5)nc4c3F)c12 [Compound 141, (S)-3-(5-(4-(2-((1-(((7-(8-ethyl-3-hydroxynaphthalen-1-yl)-8-fluoro-4-((R)-3-hydroxy-3-methylpiperidin-1-yl)pyrido[4,3-d]pyrimidin-2-yl)oxy)methyl)cyclopropyl)methyl)-2-azaspiro[3.5]nonan-7-yl)piperazin-1-yl)-1-oxoisoindolin-2-yl)piperidine-2,6-dione]",< 20,> 100,> 100,
"CCc1cccc2cc(O)cc(-c3ncc4c(N5CCC[C@@](C)(O)C5)nc(OCC5(CN6CC7(CCC(N8CCN(c9ccc%10c(c9)CN([C@H]9CCC(=O)NC9=O)C%10=O)CC8)CC7)C6)CC5)nc4c3F)c12 [Compound 142, (S)-3-(5-(4-(2-((1-(((7-(8-ethyl-3-hydroxynaphthalen-1-yl)-8-fluoro-4-((R)-3-hydroxy-3-methylpiperidin-1-yl)pyrido[4,3-d]pyrimidin-2-yl)oxy)methyl)cyclopropyl)methyl)-2-azaspiro[3.5]nonan-7-yl)piperazin-1-yl)-1-oxoisoindolin-2-yl)piperidine-2,6-dione]",20 to 200,1 to 10,,> 100
"CCc1c(F)ccc2cc(O)cc(-c3ncc4c(N5CCC[C@@](C)(O)C5)nc(OCC5(CN6CCC(N7CC8(CCN(c9ccc%10c(c9)CN(C9CCC(=O)NC9=O)C%10=O)CC8)C7)CC6)CC5)nc4c3F)c12 (stereo partly drawn) [Compound 143, 3-(5-(2-(1-((1-(((7-(8-ethyl-7-fluoro-3-hydroxynaphthalen-1-yl)-8-fluoro-4-((R)-3-hydroxy-3-methylpiperidin-1-yl)pyrido[4,3-d]pyrimidin-2-yl)oxy)methyl)cyclopropyl)methyl)piperidin-4-yl)-2,7-diazaspiro[3.5]nonan-7-yl)-1-oxoisoindolin-2-yl)piperidine-2,6-dione]",< 20,< 1,< 10,
"CCc1c(F)ccc2cc(O)cc(-c3ncc4c(N5CCC[C@@](C)(O)C5)nc(OCC5(CN6CC(N7CC8(CCN(c9ccc%10c(c9)CN(C9CCC(=O)NC9=O)C%10=O)CC8)C7)C6)CC5)nc4c3F)c12 (stereo partly drawn) [Compound 144, 3-(5-(2-(1-((1-(((7-(8-ethyl-7-fluoro-3-hydroxynaphthalen-1-yl)-8-fluoro-4-((R)-3-hydroxy-3-methylpiperidin-1-yl)pyrido[4,3-d]pyrimidin-2-yl)oxy)methyl)cyclopropyl)methyl)azetidin-3-yl)-2,7-diazaspiro[3.5]nonan-7-yl)-1-oxoisoindolin-2-yl)piperidine-2,6-dione]",< 20,< 1,< 10,
"CCc1c(F)ccc2cc(O)cc(-c3ncc4c(N5CCC[C@@](C)(O)C5)nc(OCC5(CN6CCC(N7CCC8(CCN(c9ccc%10c(c9)CN(C9CCC(=O)NC9=O)C%10=O)CC8)CC7)CC6)CC5)nc4c3F)c12 (stereo partly drawn) [Compound 145, 3-(5-(9-(1-((1-(((7-(8-ethyl-7-fluoro-3-hydroxynaphthalen-1-yl)-8-fluoro-4-((R)-3-hydroxy-3-methylpiperidin-1-yl)pyrido[4,3-d]pyrimidin-2-yl)oxy)methyl)cyclopropyl)methyl)piperidin-4-yl)-3,9-diazaspiro[5.5]undecan-3-yl)-1-oxoisoindolin-2-yl)piperidine-2,6-dione]",< 20,1 to 10,< 10,
"CCc1c(F)ccc2cc(O)cc(-c3ncc4c(N5CCC[C@@](C)(O)C5)nc(OCC5(CN6CCC(N7CC(N8CCN(c9ccc%10c(c9)CN([C@H]9CCC(=O)NC9=O)C%10=O)CC8)C7)CC6)CC5)nc4c3F)c12 [Compound 146, (S)-3-(5-(4-(1-(1-((1-(((7-(8-ethyl-7-fluoro-3-hydroxynaphthalen-1-yl)-8-fluoro-4-((R)-3-hydroxy-3-methylpiperidin-1-yl)pyrido[4,3-d]pyrimidin-2-yl)oxy)methyl)cyclopropyl)methyl)piperidin-4-yl)azetidin-3-yl)piperazin-1-yl)-1-oxoisoindolin-2-yl)piperidine-2,6-dione]",< 20,< 1,< 10,
"CCc1c(F)ccc2cc(O)cc(-c3ncc4c(N5CCC[C@@](C)(O)C5)nc(OCC5(CN6CCC(N7CCC(N8CCN(c9ccc%10c(c9)CN([C@H]9CCC(=O)NC9=O)C%10=O)CC8)CC7)CC6)CC5)nc4c3F)c12 [Compound 147, (S)-3-(5-(4-(1′-((1-(((7-(8-ethyl-7-fluoro-3-hydroxynaphthalen-1-yl)-8-fluoro-4-((R)-3-hydroxy-3-methylpiperidin-1-yl)pyrido[4,3-d]pyrimidin-2-yl)oxy)methyl)cyclopropyl)methyl)-[1,4′-bipiperidin]-4-yl)piperazin-1-yl)-1-oxoisoindolin-2-yl)piperidine-2,6-dione]",< 20,< 1,< 10,
"CCc1c(F)ccc2cc(O)cc(-c3ncc4c(N5CCC[C@@](C)(O)C5)nc(OCC5(CN6CCC(CN7CCC(N8CCN(c9ccc%10c(c9)CN([C@H]9CCC(=O)NC9=O)C%10=O)CC8)CC7)CC6)CC5)nc4c3F)c12 [Compound 148, (S)-3-(5-(4-(1-((1-((1-(((7-(8-ethyl-7-fluoro-3-hydroxynaphthalen-1-yl)-8-fluoro-4-((R)-3-hydroxy-3-methylpiperidin-1-yl)pyrido[4,3-d]pyrimidin-2-yl)oxy)methyl)cyclopropyl)methyl)piperidin-4-yl)methyl)piperidin-4-yl)piperazin-1-yl)-1-oxoisoindolin-2-yl)piperidine-2,6-dione]",< 20,< 1,< 10,
"CCc1c(F)ccc2cc(O)cc(-c3ncc4c(N5CCC[C@@](C)(O)C5)nc(OCC5(CN6CC(CN7CCC(N8CCN(c9ccc%10c(c9)CN([C@H]9CCC(=O)NC9=O)C%10=O)CC8)CC7)C6)CC5)nc4c3F)c12 [Compound 149, (S)-3-(5-(4-(1-((1-((1-(((7-(8-ethyl-7-fluoro-3-hydroxynaphthalen-1-yl)-8-fluoro-4-((R)-3-hydroxy-3-methylpiperidin-1-yl)pyrido[4,3-d]pyrimidin-2-yl)oxy)methyl)cyclopropyl)methyl)azetidin-3-yl)methyl)piperidin-4-yl)piperazin-1-yl)-1-oxoisoindolin-2-yl)piperidine-2,6-dione]",20 to 200,> 100,10 to 100,
"CCc1c(F)ccc2cc(O)cc(-c3ncc4c(N5CCC[C@@](C)(O)C5)nc(OCC5(CN6CCC7(CC6)CC(C)(CN6CCN(c8ccc9c(c8)CN([C@H]8CCC(=O)NC8=O)C9=O)CC6)C7)CC5)nc4c3F)c12 [Compound 150, (3S)-3-[5-[4-[[7-[[1-[[7-(8-ethyl-7-fluoro-3-hydroxy-1-naphthyl)-8-fluoro-4-[(3R)-3-hydroxy-3-methyl-1-piperidyl]pyrido[4,3-d]pyrimidin-2-yl]oxymethyl]cyclopropyl]methyl]-2-methyl-7-azaspiro[3.5]nonan-2-yl]methyl]piperazin-1-yl]-1-oxo-isoindolin-2-yl]piperidine-2,6-dione]",20 to 200,< 1,< 10,
